One assay concerns B. cenocepacia AU0756. The procedure: We proceeded to test the antimicrobial activity of the selected variants against two clinical isolates of the Bcc, B. cenocepacia AU0756 and B. cenocepacia AU24362, in broth microdilution assays. […] We revisited these measurements using broth microdilution assays following the Clinical & Laboratory Standards Institute (CLSI) standard.
Broth microdilution assays of the ubonodin variants were conducted using B. cenocepacia AU0756 and B. cenocepacia AU24362 with guidelines provided by the Clinical & Laboratory Standards Institute (CLSI).

The subject of another assay is E. coli MC1061. The experiment in a line: Spot dilution assay of E. coli producing the ubonodin variant from pUboABC. Particulars: biological duplicates; for Inhibits Growth: variant in pUboABC backbone in E. coli MC1061, induction with 100 μM IPTG, ten-fold serial dilutions. In kind it is cell-based. The procedure:
Cultures of E. coli MC1061 transformed with the appropriate plasmids were grown. Aliquots of the cultures were sampled prior to and after induction with 100 μM IPTG, and 10-fold serial dilutions were plated. […]
All cloning was conducted by PCR amplification (using Q5 polymerase), restriction digestion, ligation, (using T4 DNA ligase), and transformation into chemically competent E. coli XL1-Blue. All cloning with a pUboABC backbone was done by plating transformation mixt ures onto Lysogeny Broth (LB) plates supplemented with 100 μg/mL ampicillin and 0.2% w/v glucose, and colonies were inoculated into LB media supplemented with 100 μ g/mL ampicillin and 0.2% w/v glucose to suppress any leaky expression. Cloning for all other plasmid constructs was done by plating transformation mixtures onto Lysogeny Broth (LB) plates supplemented with 100 μ g/ m L ampicillin, and colonies were inoculated into LB media supplemented with 100 μ g/ m L ampicillin.
Plasmids were extracted using Qiagen QIAprep Spin Miniprep Kit and sequence verified using Sanger sequencing. All primer sequences are listed in Table S7, and all plasmid constructs are […]
pUboABC was cloned by amplifying pWC99 with pQE-80 NheI For and pAT8 Nco I Rev.
The amplicon was ligated into pWC99 digested with Nhe I and Nco I. pUboBC was cloned by digesting pUboABC with Nh e I and Nco I and ligating that fragment into pQE-80 digested with Nhe I and Nco I. pUboABC S5H I16P and pUboABCD S5H I16P were cloned with overlap PCR using pWC99 as the template. One fragment was amplified with pQE-80 EcoRI For and S5H I16P Rev v2 and the second fragment was amplified with S5H I16P For v2 and pQE-80 HindII I Rev. […]
All remaining plasmid constructs were cloned with overlap PCR. One fragment was amplified with Xho I For Lib and a mutagenic reverse primer and the second fragment was amplified with NheI Rev Lib and a mutagenic forward primer. The templates and mutagenic […]
The fragments were joined with a second round of PCR and amplified with XhoI For Lib and NheI Rev Lib. Amplicons were ligated into the appropriate plasmid backbone digested with Xho I and Nhe I-HF. The plasmid backbones […]
The appropriate plasmid was transformed into electrocompetent E. coli MC1061, plated onto LB plates supplemented with 100 μ g/ m L ampicillin and 0.2% w/v glucose, and incubated at 30 °C for 16 hours. Colonies were inoculated into LB media supplemented with 100 μ g/ m L ampicillin and 0.2% w/v glucose and grown at 37 °C for 16 hours. These cultures were sub-cultured to an OD600 of 0.02 in 50 mL of LB media supplemented with 100 μg/mL ampicillin in a 250 mL flask. Once the OD600 reached 0.3, a 1 mL aliquot was sampled immediately prior to inducing the cultures with 100 μM isopropyl β-D-1-thiogalactopyranoside (IPTG). The aliquot was washed with Phosphate-Buffered Saline (PBS) two times and ten-fold serial dilutions were spotted onto LB plates supplemented with 100 μ g/ m L ampicillin and 0.2% w/v glucose. For each following timepoint, a 1 mL sample of each culture was withdrawn, washed with PBS two times, and ten- […]
fold serial dilutions were spotted onto LB plates supplemented with 100 μ g/m L ampicillin and 0.2% w/v glucose. Plates were incubated for 16 hours at 37 °C before imaging. […]
250 mL flask. Ten-fold serial dilutions of the culture were plated onto LB plates supplemented with 100 μ g/ m L ampicillin and 0.2% w/v glucose. The cultures were then grown at 37 °C, and once the OD600 reached 0.3, a 1 mL sample of the culture was withdrawn immediately before the cultures were induced with 10 μM or 100 μM IPTG and returned to grow longer. […]
All plates were incubated at 37 °C for 16 hours, after which the number of colonies was counted. Three biological replicates of this assay were done.
Co-Culture of E. coli MC1061 pUboABC and E. coli MC1061 pUboBC pUboABC (0.9 ng) and pUboBC (0.1 ng) were transformed into electrocompetent E. coli MC1061 with a one- hour outgrowth at 37 °C in LB media supplemented with 0.2% w/v glucose. […]

Assay [1] deals with RNA polymerase (RNAP) in E. coli MC1061. The experiment in a line: High-throughput growth-based screen with NGS (enrichment value) for RNA polymerase inhibition. Set-up: key to Experimental observation (enrichment observed in the screen): Dropout: Many variants inhibit RNAP so strongly that they cannot be detected by NGS after IPTG induction (referred to as dropout variants). In kind it is cell-based. The settings on record: for Experimental observation (enrichment observed in the screen): Table S4, variants whose MICs were tested; for Enrichment: case.csv of the DeepLasso code, screen stage and IPTG concentration not stated. Here is the method: The single mutant library was analyzed by NGS at multiple stages of sample preparation (Figure 2A) to track its evolution throughout the screen. Specifically, the frequency of each possible aa variant was computed at each stage by summing up counts for each distinct translated sequence and dividing by the total number of counts for all variants (eq S1, SI Methods). Since cells expressing an RNAP-inhibiting ubonodin variant will have growth defects relative to cells with a nontoxic variant, RNAP-inhibiting ubonodin variants are expected to decrease in frequency throughout the screen.
First, the naïve library (digested PCR products) was sequenced. These digested PCR products were cloned into the pUboABC backbone and transformed into a recA^– cloning strain. This plasmid library was sequenced again to capture any changes upon transformation of the library into E. coli. The change between the naïve library and the cloning transformation library was minimal (Figure S6A). This plasmid library was transformed into the screening strain MC1061, and the plasmid from resulting colonies was also sequenced. The library in MC1061 was grown up en masse in liquid culture to mid log phase, and a portion of the culture was plated. These colonies were scraped, then the plasmid was isolated and sequenced. Finally, the liquid culture was induced with IPTG, after which a portion of the culture was plated and the plasmid was isolated and sequenced. It is key to note that all samples from liquid cultures were plated prior to sequencing to ensure that only viable cells were sequenced. […] The rationale for sequencing at these five different stages was the possibility that leaky expression of uboA would affect the frequency of active mutants prior to IPTG induction. Indeed, we observed that the frequency of some uboA mutants dropped as soon as they were transformed into the screening strain MC1061 while the frequency of other mutants climbed (Figure 2B).
The behavior of the point variants (i.e., variants with a single aa substitution) was examined by calculating their enrichment values, the base-2 logarithm of the ratio of the variant’s frequency at a specific step of the screen to the variant’s frequency in the cloning transformation library (eq S3, Figure S6). The most relevant enrichment value for ubonodin activity is the comparison between the post-IPTG library and the cloning transformation library (Figure 2A). […] Many variants inhibit RNAP so strongly that they cannot be detected by NGS after IPTG induction (referred to as dropout variants). […] Variants with a stop codon mutation and variants containing an aa substitution at Tyr9 or Tyr27 (positions conserved in MccJ25 and shown to be crucial for RNAP inhibition, see Figure S7)[26] have positive enrichment values (1.2–1.7), serving as quality control for the screen (Figure 3A). Strikingly, 63% of point variants decreased in frequency, indicating a high tolerance to aa substitution. […] The positions with active variants are Asn11 through Ser24 in the loop and Asp3, Ser5, and Ala7 in the ring.
The single mutant and double mutant libraries were transformed into E. coli MC1061. Colonies were resuspended in media and subcultured into a larger culture. Aliquots of the cultures were sampled prior to and after induction with 10 μM IPTG and 100 μM IPTG and plated. After 16 h of incubation, the colonies were resuspended in media and plasmids were miniprepped.
Samples were PCR amplified with barcoded primers and combined such that double mutant library samples were over-represented compared to single mutant library samples to provide sufficient coverage of the larger double mutant library. Samples were sequenced using an Illumina MiSeq Micro 300nt and an Illumina NovaSeq 6000 Sequencing System. Downstream analysis of the data was conducted with Python, MATLAB, and R.
V to reduce genomic DNA contamination. One fragment was amplified with Xho I For Lib and a […]

The text below walks through data of publication PMC10037499, “High-Throughput Screen Reveals the Structure–Activity Relationship of the Antimicrobial Lasso Peptide Ubonodin” (ACS Central Science, 2023).

Where a SMILES comes first, the peptide text is derived from it.

With `CC[C@H](C)[C@@H]1NC(=O)[C@H](CO)NC(=O)CNC(=O)[C@H](CC(=O)O)NC(=O)CNC(=O)CNC(=O)CC[C@@H](C(=O)N[C@@H](Cc2ccc(O)cc2)C(=O)N[C@@H](Cc2ccccc2)C(=O)N[C@@H](CCSC)C(=O)N[C@@H](CCCNC(=N)N)C(=O)N2CCC[C@H]2C(=O)N[C@@H](CCSC)C(=O)N[C@@H](Cc2c[nH]cn2)C(=O)N[C@H](C(=O)N[C@@H](Cc2c[nH]cn2)C(=O)N[C@@H](CC(=O)O)C(=O)N[C@@H](Cc2c[nH]c3ccccc23)C(=O)N[C@@H](CCC(N)=O)C(=O)N[C@H](C(=O)N[C@@H](CCSC)C(=O)N[C@@H](CC(=O)O)C(=O)N[C@@H](CO)C(=O)NCC(=O)N[C@@H](Cc2ccc(O)cc2)C(=O)N[C@@H](Cc2ccc(O)cc2)C(=O)NCC(=O)O)[C@@H](C)CC)[C@@H](C)CC)NC(=O)CNC1=O` [A7G N11M] (HELM PEPTIDE1{G.G.D.G.S.I.G.E.Y.F.M.R.P.M.H.I.H.D.W.Q.I.M.D.S.G.Y.Y.G}$PEPTIDE1,PEPTIDE1,1:R1-8:R3$$$V2.0), the “B. cenocepacia AU0756 MIC” value in the assay on B. cenocepacia AU0756 was more than 8 µM. Besides, the “Time after induction at which the toxic effect was observed” value in the assay on E. coli MC1061 (pUboABC backbone) came out at 6 h. The “Inhibits Growth” value in the assay on E. coli MC1061 is on record as “Yes”. Besides, the “Experimental observation (enrichment observed in the screen)” value (shortened to “Experimental observation”) in assay [1] is given as “Dropout”.

With `CC[C@H](C)[C@H](NC(=O)[C@H](CCC(N)=O)NC(=O)[C@H](Cc1c[nH]c2ccccc12)NC(=O)[C@H](CC(=O)O)NC(=O)[C@H](Cc1c[nH]cn1)NC(=O)[C@H](C)NC(=O)[C@H](Cc1c[nH]cn1)NC(=O)[C@H](CCSC)NC(=O)[C@@H]1CCCN1C(=O)[C@H](CCCNC(=N)N)NC(=O)[C@H](CC(N)=O)NC(=O)[C@H](Cc1ccccc1)NC(=O)[C@H](Cc1ccc(O)cc1)NC(=O)[C@@H]1CCC(=O)NCC(=O)NCC(=O)N[C@@H](CC(=O)O)C(=O)NCC(=O)N[C@@H](CO)C(=O)N[C@@H]([C@@H](C)CC)C(=O)N2CCC[C@H]2C(=O)N1)C(=O)N[C@@H](CCSC)C(=O)N[C@@H](CC(=O)O)C(=O)N[C@@H](CO)C(=O)NCC(=O)N[C@@H](Cc1ccc(O)cc1)C(=O)N[C@@H](Cc1ccc(O)cc1)C(=O)NCC(=O)O` [A7P I16A] (HELM PEPTIDE1{G.G.D.G.S.I.P.E.Y.F.N.R.P.M.H.A.H.D.W.Q.I.M.D.S.G.Y.Y.G}$PEPTIDE1,PEPTIDE1,1:R1-8:R3$$$V2.0), the “B. cenocepacia AU0756 MIC” value in the assay on B. cenocepacia AU0756 is 4 to 8 µM. In the assay on E. coli MC1061, the “Inhibits Growth” value is “Yes”. The “Experimental observation” value in assay [1] is “Dropout”.

On to `CC[C@H](C)[C@H](NC(=O)[C@H](CCC(N)=O)NC(=O)[C@H](Cc1c[nH]c2ccccc12)NC(=O)[C@H](CC(=O)O)NC(=O)[C@H](Cc1c[nH]cn1)NC(=O)[C@@H](NC(=O)[C@H](Cc1c[nH]cn1)NC(=O)[C@H](CCSC)NC(=O)[C@@H]1CCCN1C(=O)[C@H](CCCNC(=N)N)NC(=O)[C@H](CC(N)=O)NC(=O)[C@H](Cc1ccccc1)NC(=O)[C@H](Cc1ccc(O)cc1)NC(=O)[C@@H]1CCC(=O)NCC(=O)NCC(=O)N[C@@H](CC(=O)O)C(=O)NCC(=O)N[C@@H](CO)C(=O)N[C@@H]([C@@H](C)CC)C(=O)N2CCC[C@H]2C(=O)N1)[C@@H](C)CC)C(=O)N[C@@H](CCSC)C(=O)N[C@@H](CC(=O)O)C(=O)N[C@@H](CO)C(=O)NCC(=O)N[C@@H](Cc1ccc(O)cc1)C(=O)N[C@@H](Cc1ccc(O)cc1)C(=O)NCC(=O)O` [A7P] (HELM PEPTIDE1{G.G.D.G.S.I.P.E.Y.F.N.R.P.M.H.I.H.D.W.Q.I.M.D.S.G.Y.Y.G}$PEPTIDE1,PEPTIDE1,1:R1-8:R3$$$V2.0; C-terminus assumed), for which the “B. cenocepacia AU0756 MIC” value in the assay on B. cenocepacia AU0756 came out at 2 µM. Further, the “Inhibits Growth” value in the assay with E. coli MC1061 is reported as “Yes”. Further, in assay [1], the “Experimental observation” value is -3.4.

Regarding GGDGSIAEYFNRPMHIHEWQIM*SGYYG, the Enrichment in assay [1] was found to be 4.458.

As to GGDGSI*EYFNRPMVIHDWQIMDSGMYG, the Enrichment in assay [1] is 4.338.
